# Source: US10167269B2, “Cockroach attraction-aggregation substance, cockroach aggregation attractant and cockroach controlling agent” (Kyoto University, priority 2013, dated 2019)
# Tested on: cockroaches
# Assay: biological test using the linear track olfactometer (attraction-aggregation activity)
# Type: in vivo, American cockroaches
# Conditions: Test Example 1; dose 10^2 pg; EPI=(NS-NC)/(NS+NC)
# Text: The method for determining the activity of the cockroach attraction-aggregation substance is not particularly limited herein, and the activity may be determined by, for example, a biological test using a linear track olfactometer (FIG. 1).
# An olfactometer (linear track olfactometer) is typically an instrument used to conduct bioassays to observe the response of insects to volatiles. The instrument has a bifurcation at which air flow containing an attractant substance attracts the insect subjects (see, e.g., J. Jpn. For. Soc., 89(2), 2007, “An Olfactometer Testing the Olfactory Response of the Japanese Horntail Urocerus japonicus to Volatiles.”, 135-137, and Nogyo Kankyo Kenkyu Sosho, Vol. 17, “Nogyo Seitaikei no Hozen ni Muketa Seibutsu Kino no Katsuyo”, 108-134).
# A biological test with a linear track olfactometer will be specifically described below. In FIG. 1, air suction from the top 1 of the central tube allows air to enter from the tops (2a and 2b) of the right and left tubes, thereby air flows are generated from the both sides, flowing through the horizontal tube toward the top of the central tube. The left tube is the control side, and the right tube is the sample side. Insect subjects (7 to 10 day-old larvae) are placed at the bottom 4 of the central tube. Air is then slowly suctioned from the top of the central tube with a pump (2.5 L/min). The insect subjects are allowed to freely move for 5 minutes at 25±1° C. at a relative humidity of 40 to 60% in total darkness. The numbers of the insect subjects that have moved to the control side and to the sample side are counted. The excess proportion index (EPI) is calculated by the following equation: EPI=(NS−NC)/(NS+NC) (where NS is the number of the insect subjects that have moved to the sample side; and NC is the number of the insect subjects that have moved to the control side).
# An EPI closer to 1 indicates higher attraction-aggregation activity on cockroaches.
# In the examples, the attraction-aggregation activity on cockroaches was determined by a biological test using the above-described linear track olfactometer (FIG. 1).
row,SMILES,EPI value
1,"CCC1Cc2cc(C)c(C)c(O)c2C(=O)O1 (stereo not drawn) [Example 5, 3,4-dihydro-8-hydroxy-3-ethyl-6,7-dimethyl-1H-2-benzopyran-1-one]",about 0.5

# Same assay, conditions: Test Example 1; even at a dose of 10^6 pg
row,SMILES,attraction-aggregation activity on cockroaches
1,"CCC1Cc2cc(C)c(C)c(OC)c2C(=O)O1 (stereo not drawn) [Comparative Example 1, reference compound]",no activity

# Same assay, conditions: Test Example 5; compounds isolated from frass in Example 24
row,SMILES,attraction-aggregation activity on cockroaches
1,"Cc1ccc2c(c1O)C(=O)O[C@H](C)[C@H]2C (relative stereo) [PLD-A, (trans)-3,4-dihydro-8-hydroxy-3,4,7-trimethyl-1H-2-benzopyran-1-one]",high attraction-aggregation activity
2,"CCC(C)C1Cc2c(C)cc(C)c(O)c2C(=O)O1 (stereo not drawn) [PLD-E, 3,4-dihydro-8-hydroxy-3-(1-methylpropyl)-5,7-dimethyl-1H-2-benzopyran-1-one]",high attraction-aggregation activity
3,"Cc1ccc2c(c1O)C(=O)O[C@@H](C)[C@H]2C (relative stereo) [PLD-B, (cis)-3,4-dihydro-8-hydroxy-3,4,7-trimethyl-1H-2-benzopyran-1-one]",high attraction-aggregation activity
4,"CCCC(C)C1Cc2c(C)cc(C)c(O)c2C(=O)O1 (stereo not drawn) [PLD-F, 3,4-dihydro-8-hydroxy-3-(1-methylbutyl)-5,7-dimethyl-1H-2-benzopyran-1-one]",high attraction-aggregation activity
5,"CC[C@@H]1OC(=O)c2c(ccc(C)c2O)[C@@H]1C (relative stereo) [PLD-D, (cis)-3,4-dihydro-8-hydroxy-4,7-dimethyl-3-ethyl-1H-2-benzopyran-1-one]",high attraction-aggregation activity
6,"CC[C@H]1OC(=O)c2c(ccc(C)c2O)[C@@H]1C (relative stereo) [PLD-C, (trans)-3,4-dihydro-8-hydroxy-4,7-dimethyl-3-ethyl-1H-2-benzopyran-1-one]",high attraction-aggregation activity

# Same assay, conditions: Test Examples 1 and 4; doses ranging from 10^-3 pg to 10^6 pg; 7 to 10 day-old larvae, 5 minutes
row,SMILES,attraction-aggregation activity on cockroaches
1,"CC1Cc2cccc(O)c2C(=O)O1 (stereo not drawn) [Example 23, mellein]",high attraction-aggregation activity
2,"Cc1ccc2c(c1O)C(=O)OC2 [Example 18, 7-hydroxy-6-methyl-1(3H)-isobenzofuranone]",showed attraction-aggregation activity
3,"Cc1ccc2c(c1O)C(=O)OC1CCCC21 (stereo not drawn) [Example 17, 2,3,3a,9b-tetrahydro-6-hydroxy-7-methyl-cyclopenta[c][2]benzopyran-5(1H)-one]",showed attraction-aggregation activity
4,"CCC1Cc2cc(C)c(C)c(O)c2C(=O)O1 (stereo not drawn) [Example 5, 3,4-dihydro-8-hydroxy-3-ethyl-6,7-dimethyl-1H-2-benzopyran-1-one]",high attraction-aggregation activity

# Same assay, conditions: Test Examples 2 and 3; doses ranging from 10^-3 pg to 10^3 pg
row,SMILES,attraction-aggregation activity on cockroaches
1,"CCC1Cc2c(C)cc(C)c(O)c2C(=O)O1 (stereo not drawn) [Example 4, 3,4-dihydro-8-hydroxy-3-ethyl-5,7-dimethyl-1H-2-benzopyran-1-one]",high attraction-aggregation activity
2,"Cc1ccc2c(c1O)C(=O)OC(C)C2 (stereo not drawn) [step 1-4 of Example 1, 3,4-dihydro-8-hydroxy-3,7-dimethyl-1H-2-benzopyran-1-one]",high attraction-aggregation activity
3,"CCC1Cc2ccc(C)c(O)c2C(=O)O1 (stereo not drawn) [Example 3, 3,4-dihydro-8-hydroxy-3-ethyl-7-methyl-1H-2-benzopyran-1-one]",high attraction-aggregation activity
